Experimental data: PubChem BioAssay AID1259407 (Chemical Carcinogenesis Research Information System (CCRIS), 2018)
Activity calls are given as the source filed them. How the calls were made is not given here.

Test system: CCRIS mutagenicity, Ames/micronucleus/aberration tests
Experiment: CCRIS mutagenicity studies
[1] = Test System: AMES SALMONELLA TYPHIMURIUM, Strain/Indicator: TA98, Metabolic Activation: NONE, Method: PREINCUBATION
[2] = Test System: AMES SALMONELLA TYPHIMURIUM, Strain/Indicator: TA100, Metabolic Activation: NONE, Method: PREINCUBATION
[3] = Test System: AMES SALMONELLA TYPHIMURIUM, Strain/Indicator: TA1535, Metabolic Activation: NONE, Method: PREINCUBATION
[4] = Test System: AMES SALMONELLA TYPHIMURIUM, Strain/Indicator: TA1537, Metabolic Activation: NONE, Method: PREINCUBATION
[5] = Test System: AMES SALMONELLA TYPHIMURIUM, Strain/Indicator: TA98, Metabolic Activation: RAT, LIVER, S-9, AROCLOR 1254, Method: STANDARD PLATE
[6] = Test System: AMES SALMONELLA TYPHIMURIUM, Strain/Indicator: TA100, Metabolic Activation: NONE, Method: STANDARD PLATE
[7] = Test System: AMES SALMONELLA TYPHIMURIUM, Strain/Indicator: TA100, Metabolic Activation: RAT, LIVER, S-9, AROCLOR 1254, Method: STANDARD PLATE
[8] = Test System: AMES SALMONELLA TYPHIMURIUM, Strain/Indicator: TA1535, Metabolic Activation: NONE, Method: STANDARD PLATE
[9] = Test System: AMES SALMONELLA TYPHIMURIUM, Strain/Indicator: TA1535, Metabolic Activation: RAT, LIVER, S-9, AROCLOR 1254, Method: STANDARD PLATE
[10] = Test System: AMES SALMONELLA TYPHIMURIUM, Strain/Indicator: TA1537, Metabolic Activation: NONE, Method: STANDARD PLATE
[11] = Test System: AMES SALMONELLA TYPHIMURIUM, Strain/Indicator: TA1537, Metabolic Activation: RAT, LIVER, S-9, AROCLOR 1254, Method: STANDARD PLATE

**Q.** Which results are given for `[CH3][Pb]([CH3])([CH3])[CH3]`?
**A.** mutagenic call (Test System: AMES SALMONELLA TYPHIMURIUM, Strain/Indicator: TA98, Metabolic Activation: HAMSTER, LIVER, S-9, AROCLOR 1254, Method: PREINCUBATION): inactive; negative; mutagenic call [1]: inactive; negative; mutagenic call (Test System: AMES SALMONELLA TYPHIMURIUM, Strain/Indicator: TA98, Metabolic Activation: RAT, LIVER, S-9, AROCLOR 1254, Method: PREINCUBATION): inactive; negative; mutagenic call (Test System: AMES SALMONELLA TYPHIMURIUM, Strain/Indicator: TA100, Metabolic Activation: HAMSTER, LIVER, S-9, AROCLOR 1254, Method: PREINCUBATION): inactive; negative; mutagenic call [2]: inactive; negative; mutagenic call (Test System: AMES SALMONELLA TYPHIMURIUM, Strain/Indicator: TA100, Metabolic Activation: RAT, LIVER, S-9, AROCLOR 1254, Method: PREINCUBATION): inactive; negative; mutagenic call (Test System: AMES SALMONELLA TYPHIMURIUM, Strain/Indicator: TA1535, Metabolic Activation: HAMSTER, LIVER, S-9, AROCLOR 1254, Method: PREINCUBATION): inactive; negative; mutagenic call [3]: inactive; negative; mutagenic call (Test System: AMES SALMONELLA TYPHIMURIUM, Strain/Indicator: TA1535, Metabolic Activation: RAT, LIVER, S-9, AROCLOR 1254, Method: PREINCUBATION): inactive; negative; mutagenic call (Test System: AMES SALMONELLA TYPHIMURIUM, Strain/Indicator: TA1537, Metabolic Activation: HAMSTER, LIVER, S-9, AROCLOR 1254, Method: PREINCUBATION): inactive; negative; mutagenic call [4]: inactive; negative; mutagenic call (Test System: AMES SALMONELLA TYPHIMURIUM, Strain/Indicator: TA1537, Metabolic Activation: RAT, LIVER, S-9, AROCLOR 1254, Method: PREINCUBATION): inactive; negative

**Q.** Which results are given for `O=C1c2ccc(O)c(O)c2C(=O)c2c(O)ccc(O)c21`?
**A.** mutagenic call [5]: inactive; negative; mutagenic call [6]: inactive; negative; mutagenic call [7]: inactive; negative; mutagenic call [8]: inactive; negative; mutagenic call [9]: inactive; negative; mutagenic call [10]: active; positive; mutagenic call [11]: active; positive; mutagenic call (Test System: AMES SALMONELLA TYPHIMURIUM, Strain/Indicator: TA1538, Metabolic Activation: RAT, LIVER, S-9, AROCLOR 1254, Method: STANDARD PLATE): inactive; negative

**Q.** For `O=C(O)CCC(=O)OC[C@@H](NC(=O)C(Cl)Cl)[C@H](O)c1ccc([N+](=O)[O-])cc1`, which mutagenic call (Test System: AMES SALMONELLA TYPHIMURIUM, Strain/Indicator: TA98, Metabolic Activation: HAMSTER, LIVER, S-9, AROCLOR 1254 (10%), Method: PREINCUBATION) is on record?
**A.** inactive; negative

**Q.** What about the mutagenic call [1] of the same compound?
**A.** inactive; negative

**Q.** And the mutagenic call (Test System: AMES SALMONELLA TYPHIMURIUM, Strain/Indicator: TA98, Metabolic Activation: RAT, LIVER, S-9, AROCLOR 1254 (10%), Method: PREINCUBATION)?
**A.** inactive; negative

**Q.** And the mutagenic call (Test System: AMES SALMONELLA TYPHIMURIUM, Strain/Indicator: TA100, Metabolic Activation: HAMSTER, LIVER, S-9, AROCLOR 1254 (10%), Method: PREINCUBATION)?
**A.** inactive; negative

**Q.** What about the mutagenic call [2] of the same compound?
**A.** inactive; negative

**Q.** What about the mutagenic call (Test System: AMES SALMONELLA TYPHIMURIUM, Strain/Indicator: TA100, Metabolic Activation: RAT, LIVER, S-9, AROCLOR 1254 (10%), Method: PREINCUBATION) of the same compound?
**A.** inactive; negative

**Q.** And the mutagenic call (Test System: AMES SALMONELLA TYPHIMURIUM, Strain/Indicator: TA1535, Metabolic Activation: HAMSTER, LIVER, S-9, AROCLOR 1254 (10%), Method: PREINCUBATION)?
**A.** inactive; negative

**Q.** What about the mutagenic call [3] of the same compound?
**A.** inactive; negative

**Q.** And the mutagenic call (Test System: AMES SALMONELLA TYPHIMURIUM, Strain/Indicator: TA1535, Metabolic Activation: RAT, LIVER, S-9, AROCLOR 1254 (10%), Method: PREINCUBATION)?
**A.** inactive; negative

**Q.** And the mutagenic call (Test System: AMES SALMONELLA TYPHIMURIUM, Strain/Indicator: TA1537, Metabolic Activation: HAMSTER, LIVER, S-9, AROCLOR 1254 (10%), Method: PREINCUBATION)?
**A.** inactive; negative

**Q.** What about the mutagenic call [4] of the same compound?
**A.** inactive; negative

**Q.** What about the mutagenic call (Test System: AMES SALMONELLA TYPHIMURIUM, Strain/Indicator: TA1537, Metabolic Activation: RAT, LIVER, S-9, AROCLOR 1254 (10%), Method: PREINCUBATION) of the same compound?
**A.** inactive; negative

**Q.** What about the mutagenic call (Test System: MOUSE LYMPHOMA, Strain/Indicator: L5178Y (TK+/TK-), Metabolic Activation: NONE, Method: SUSPENSION/PLATE) of the same compound?
**A.** active; positive

**Q.** What about the mutagenic call (Test System: MOUSE LYMPHOMA, Strain/Indicator: L5178Y (TK+/TK-), Metabolic Activation: RAT, LIVER, S-9, AROCLOR 1254, Method: SUSPENSION/PLATE) of the same compound?
**A.** active; positive

**Q.** And the mutagenic call (Test System: MOUSE LYMPHOMA, Strain/Indicator: L5178Y (TK+/TK-), Metabolic Activation: RAT, LIVER, S-9, Method: SUSPENSION/PLATE)?
**A.** active; positive

**Q.** What does the source list for `Cc1nnc2n1-c1ccc(Cl)cc1C(c1ccccc1Cl)=NC2`?
**A.** mutagenic call (Test System: AMES SALMONELLA TYPHIMURIUM, Strain/Indicator: TA98, Metabolic Activation: NONE, Method: STANDARD PLATE): inactive; negative; mutagenic call [5]: inactive; negative; mutagenic call [6]: inactive; negative; mutagenic call [7]: inactive; negative; mutagenic call (Test System: AMES SALMONELLA TYPHIMURIUM, Strain/Indicator: TA102, Metabolic Activation: NONE, Method: STANDARD PLATE): inactive; negative; mutagenic call (Test System: AMES SALMONELLA TYPHIMURIUM, Strain/Indicator: TA102, Metabolic Activation: RAT, LIVER, S-9, AROCLOR 1254, Method: STANDARD PLATE): inactive; negative; mutagenic call [8]: inactive; negative; mutagenic call [9]: inactive; negative; mutagenic call [10]: inactive; negative; mutagenic call [11]: inactive; negative; mutagenic call (Test System: E. COLI, Strain/Indicator: WP2 UVRA, Metabolic Activation: NONE, Method: STANDARD PLATE): inactive; negative; mutagenic call (Test System: E. COLI, Strain/Indicator: WP2 UVRA, Metabolic Activation: RAT, LIVER, S-9, AROCLOR 1254, Method: STANDARD PLATE): inactive; negative
